# Test results as given in ChEMBL document CHEMBL5226379, “Hypouricemic Actions of the Pericarp of Mangosteen in Vitro and in Vivo” (J Nat Prod, 2023).
# Assays:
# [1] = test system: Rattus norvegicus; assay: Anti-hyperuricemic activity against potassium oxonate-induced hyperuricemic Sprague-Dawley rat model assessed as excretion of urate per volume of glomerular filtration measured per body surface area of 0.0311 m2 at 4 mg/kg, po pre-administered via gavage twice daily for 5 times followed by potassium oxonate injection for 1 hrs prior to last dose and measured after 3 hrs; type: functional; details: time 123 hrs
# [2] = organism: Homo sapiens; assay: Inhibition of uricase (unknown origin) using uric acid as substrate at 112.5 mg/L preincubated with compounds for 15 mins followed by uric acid addition
# [3] = organism: Homo sapiens; assay: Inhibition of uricase (unknown origin) using uric acid as substrate at 75 mg/L preincubated with compounds for 15 mins followed by uric acid addition
smiles,measurement,setting,value
COc1c(O)cc2oc3cc(O)c(CC=C(C)C)c(O)c3c(=O)c2c1CC=C(C)C [MANGOSTIN],Activity,[1],5.3 µmol/L
same,inhibition,[2],6.3%
same,inhibition,[3],2.6%
